Patent publication EP0137439A2, “Antitumour agent” (Henkel Kommanditgesellschaft auf Aktien, priority 1983, dated 1985)

Test system: Tumorart P 388 (Leukämie)
Assay: P 388 leukemia survival test in mice, NCI protocol 1200
Type: in vivo, Mäusen
Details: P 388 i.p. in mice; for T/C-Wert: aqueous 1% injection solution, rate of survival prolongation vs untreated animals; for 30 Tage überlebende Tiere (von 6): animals out of 6 alive at 30 days
Text: Epoxid-0: gef. 18,94 %, ber. 18,82 % Die nachfolgenden Versuche wurden durchgeführt nach Testvorschriften des National Cancer Institute Bethesda, Maryland 200014, veröffentlicht in "Cancer Chemotherapy Reports" Part. 3, September 1972, Vol. 3, Nr. 2. Als Wirksubstanz wurde 1,2-Diglycidyl-4-diglycidylamino- urazol des vorstehenden Beispiels 1 verwendet. Die Substanz wurde als wäßrige, 1%ige In jektions lösung unmittelbar vor der Applikation frisch hergestellt.
Bei Mäusen wurde gemäß Protokoll 1200 (S. 91c) die Tumorart P 388 (Leukämie) i.p. mit […] gesetzt. Die mittlere Uberlebensdauer der unbehandelten Tiere wird bestimmt.
In weiteren Versuchsgruppen wird entsprechend vorbehandelten Tieren der Wirkstoff applizi-ert. Es wird eine signifikante Verlängerung der Lebensdauer der behandelten Testtiere gegenüber der mittleren Überlebensdauer der nicht mit dem Wirkstoff behandelten Tiere erzielt. Die Verlängerungsrate T/C in Abhängigkeit von der Dosierung des Wirkstoffes ist in der folgenden Tabelle zusammengestellt: […]

SMILES | T/C-Wert (dose 25 mg/kg) | 30 Tage überlebende Tiere (von 6) (dose 50 mg/kg) | T/C-Wert (dose 50 mg/kg) | 30 Tage überlebende Tiere (von 6) (dose 6,25 mg/kg) | T/C-Wert (dose 6,25 mg/kg) | T/C-Wert (dose 12,5 mg/kg) | 30 Tage überlebende Tiere (von 6) (dose 25 mg/kg)
O=c1n(N(CC2CO2)CC2CO2)c(=O)n(CC2CO2)n1CC1CO1 (stereo not drawn) [1,2-Diglycidyl-4-diglycidyl-aminourazol, 1,2-Diglycidyl-4-diglycidylamino-urazol] | 155 | 6 | >300 | 3 | 291 | 142 | 
O=c1n(CC2CO2)c(=O)n(CC2CO2)n1CC1CO1 (stereo not drawn) [Triglycidylurazol] | 260 | 6 | 300 |  | 180 | 230 | 4
